Reference: ChEMBL document CHEMBL4130481, “Structures and Antibacterial Properties of Isorugosins H-J, Oligomeric Ellagitannins from Liquidambar formosana with Characteristic Bridging Groups between Sugar Moieties” (J Nat Prod, 2017)
In brackets after ≈: the same amount, converted by molar mass. Activity calls are given as the source filed them. The calls are words filed in the database; no cut-off is given here.

Columns and labels:
Staphylococcus aureus [1] = assay: Antibacterial activity against methicillin-sensitive Staphylococcus aureus 209P after 24 hrs by liquid dilution method; format: functional
Albumin [2] = target: T1, Albumin (Bos taurus, UniProt P02769); assay: Binding affinity to bovine serum albumin assessed as retention time for compound-protein complex formation at 0.5 mg/ml by size exclusion chromatographic method (reference value: 16 mins); format: ADME; details: cattle
T1 sequence (P02769 whole entry): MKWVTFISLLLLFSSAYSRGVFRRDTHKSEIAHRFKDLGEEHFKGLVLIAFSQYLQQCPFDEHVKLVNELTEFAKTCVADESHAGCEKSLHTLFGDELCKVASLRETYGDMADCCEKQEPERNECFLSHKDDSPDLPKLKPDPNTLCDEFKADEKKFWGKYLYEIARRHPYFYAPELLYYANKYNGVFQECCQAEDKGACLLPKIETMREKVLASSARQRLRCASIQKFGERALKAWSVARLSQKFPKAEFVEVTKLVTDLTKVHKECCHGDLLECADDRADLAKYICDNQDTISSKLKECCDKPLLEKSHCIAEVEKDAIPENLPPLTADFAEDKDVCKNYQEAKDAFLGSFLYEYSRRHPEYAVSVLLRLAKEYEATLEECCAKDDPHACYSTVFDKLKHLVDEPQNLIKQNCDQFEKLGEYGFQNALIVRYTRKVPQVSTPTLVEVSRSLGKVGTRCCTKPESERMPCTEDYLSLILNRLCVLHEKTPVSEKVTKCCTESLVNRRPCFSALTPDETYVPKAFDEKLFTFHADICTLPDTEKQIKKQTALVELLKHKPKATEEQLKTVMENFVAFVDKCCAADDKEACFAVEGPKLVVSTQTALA

Staphylococcus aureus [3] = assay: Antibacterial activity against methicillin-resistant Staphylococcus aureus isolate OM505 after 24 hrs by liquid dilution method; format: functional; details: isolate OM505, 24 h
Staphylococcus aureus [4] = assay: Antibacterial activity against methicillin-resistant Staphylococcus aureus isolate OM481 after 24 hrs by liquid dilution method; format: functional; details: isolate OM481, 24 h
Albumin [5] = target: T1, Albumin; assay: Binding affinity to bovine serum albumin by SDS-PAGE analysis; format: ADME; details: cattle, isolated protein
Pseudomonas aeruginosa [6] = assay: Antibacterial activity against Pseudomonas aeruginosa PAO1 after 24 hrs by liquid dilution method; format: functional
Pseudomonas aeruginosa [7] = assay: Antibacterial activity against Pseudomonas aeruginosa PAO1 assessed as inhibition of green pigment formation; format: functional
Staphylococcus aureus [8] = assay: Antibacterial activity against methicillin-resistant Staphylococcus aureus isolate OM505; format: functional
Staphylococcus aureus [9] = assay: Antibacterial activity against methicillin-sensitive Staphylococcus aureus 209P; format: functional
Staphylococcus aureus [10] = assay: Antibacterial activity against methicillin-resistant Staphylococcus aureus isolate OM481; format: functional

O=C(O[C@H]1[C@@H]2OC(=O)c3cc(Oc4c(C(=O)O)cc(O)c(O)c4O)c(O)c(O)c3-c3c(cc(O)c(O)c3O)C(=O)OC[C@H]2OC(O)[C@@H]1OC(=O)c1cc(O)c(O)c(O)c1)c1cc(O)c(O)c(O)c1 (some centres undefined)
MIC (Staphylococcus aureus [1]): 67 µM (≈ 64 µg/mL) | Retention time (Albumin [2]): 9 to 12 min | MIC (Staphylococcus aureus [3]): 67 µM (≈ 64 µg/mL) | MIC (Staphylococcus aureus [4]): 34 µM (≈ 32.5 µg/mL) | Activity (Albumin [5]): Active | MIC (Pseudomonas aeruginosa [6]; PAO1, 24 h): > 1070 µM | MIC (Pseudomonas aeruginosa [7]): 34 µM (≈ 32.5 µg/mL)

O=C(OC[C@H]1O[C@@H](OC(=O)c2cc(O)c(O)c(O)c2)[C@H](OC(=O)c2cc(O)c(O)c(O)c2)[C@@H](OC(=O)c2cc(O)c(O)c(O)c2)[C@@H]1OC(=O)c1cc(O)c(O)c(O)c1)c1cc(O)c(O)c(O)c1 [PENTAGALLOYL GLUCOSE]
MIC (Staphylococcus aureus [8]): 68 µM (≈ 64 µg/mL) | MIC (Staphylococcus aureus [9]): 68 µM (≈ 64 µg/mL) | MIC (Staphylococcus aureus [10]): 68 µM (≈ 64 µg/mL) | inhibition (Pseudomonas aeruginosa [7]): Active

NCC[C@H](O)C(=O)N[C@@H]1C[C@H](N)[C@@H](O[C@H]2O[C@H](CN)[C@@H](O)[C@H](O)[C@H]2O)[C@H](O)[C@H]1O[C@H]1O[C@H](CO)[C@@H](O)[C@H](N)[C@H]1O [AMIKACIN]
MIC (Pseudomonas aeruginosa [6]; PAO1, 24 h): 14 µM (≈ 8.2 µg/mL)

O=C(O[C@@H]1COC(=O)c2cc(O)c(O)c(O)c2-c2c(cc(O)c(O)c2O)C(=O)O[C@H]1[C@@H]1OC(=O)c2cc(O)c(O)c(O)c2-c2c(O)c(O)c(O)c3c2C(=O)O[C@H]1[C@H]3O)c1cc(O)c(O)c(O)c1
inhibition (Pseudomonas aeruginosa [7]): Active

GENTAMICIN
MIC (Pseudomonas aeruginosa [6]): 17 µM

Cc1onc(-c2ccccc2)c1C(=O)N[C@@H]1C(=O)N2[C@@H]1SC(C)(C)[C@@H]2C(=O)O [OXACILLIN]
MIC (Staphylococcus aureus [1]): < 0.6 µM | MIC (Staphylococcus aureus [3]): 319 µM (≈ 128 µg/mL) | MIC (Staphylococcus aureus [4]): 638 µM (≈ 256 µg/mL)

O=C1OC[C@H]2O[C@H](O)[C@@H]3OC(=O)c4cc(O)c(O)c(O)c4-c4c(cc(O)c(O)c4O)C(=O)O[C@H]3[C@@H]2OC(=O)c2cc(O)c(O)c(O)c2-c2c1cc(O)c(O)c2O
inhibition (Pseudomonas aeruginosa [7]): Active

O=C(O[C@@H]1O[C@@H]2COC(=O)c3cc(O)c(O)c(O)c3-c3c(cc(Oc4c(C(=O)O[C@@H]5O[C@@H]6COC(=O)c7cc(O)c(O)c(O)c7-c7c(cc(O)c(O)c7O)C(=O)O[C@H]6[C@H](OC(=O)c6cc(O)c(O)c(O)c6)[C@H]5OC(=O)c5cc(O)c(O)c(O)c5)cc(O)c(O)c4O)c(O)c3O)C(=O)O[C@H]2[C@H](OC(=O)c2cc(O)c(O)c(O)c2)[C@H]1OC(=O)c1cc(O)c(O)c(O)c1)c1cc(O)c(O)c(O)c1
MIC (Staphylococcus aureus [1]): 34 µM (≈ 63.8 µg/mL) | Retention time (Albumin [2]): 9 to 12 min | MIC (Staphylococcus aureus [3]): 68 µM (≈ 128 µg/mL) | MIC (Staphylococcus aureus [4]): 34 µM (≈ 63.8 µg/mL) | Activity (Albumin [5]): Active | MIC (Pseudomonas aeruginosa [6]; PAO1, 24 h): > 546 µM | MIC (Pseudomonas aeruginosa [7]): 34 µM (≈ 63.8 µg/mL)

O=C(O[C@@H]1O[C@@H]2COC(=O)c3cc(O)c(O)c(O)c3-c3c(cc(Oc4c(C(=O)O)cc(O)c(O)c4O)c(O)c3O)C(=O)O[C@H]2[C@H](OC(=O)c2cc(O)c(O)c(O)c2)[C@H]1OC(=O)c1cc(O)c(O)c(O)c1)c1cc(O)c(O)c(O)c1
MIC (Staphylococcus aureus [1]): 58 µM (≈ 64.2 µg/mL) | Retention time (Albumin [2]): 9 to 12 min | MIC (Staphylococcus aureus [3]): 58 µM (≈ 64.2 µg/mL) | MIC (Staphylococcus aureus [4]): 29 µM (≈ 32.1 µg/mL) | Activity (Albumin [5]): Active | MIC (Pseudomonas aeruginosa [6]; PAO1, 24 h): > 926 µM | MIC (Pseudomonas aeruginosa [7]): 29 µM (≈ 32.1 µg/mL)

O=C(O[C@@H]1O[C@@H]2COC(=O)c3cc(O)c(O)c(O)c3-c3c(cc(Oc4c(C(=O)O[C@@H]5O[C@@H]6COC(=O)c7cc(O)c(O)c(O)c7-c7c(cc(Oc8c(C(=O)O[C@@H]9O[C@@H]%10COC(=O)c%11cc(O)c(O)c(O)c%11-c%11c(cc(O)c(O)c%11O)C(=O)O[C@H]%10[C@H](OC(=O)c%10cc(O)c(O)c(O)c%10)[C@H]9OC(=O)c9cc(O)c(O)c(O)c9)cc(O)c(O)c8O)c(O)c7O)C(=O)O[C@H]6[C@H](OC(=O)c6cc(O)c(O)c(O)c6)[C@H]5OC(=O)c5cc(O)c(O)c(O)c5)cc(O)c(O)c4O)c(O)c3O)C(=O)O[C@H]2[C@H](OC(=O)c2cc(O)c(O)c(O)c2)[C@H]1OC(=O)c1cc(O)c(O)c(O)c1)c1cc(O)c(O)c(O)c1
MIC (Staphylococcus aureus [1]): 23 µM (≈ 64.7 µg/mL) | Retention time (Albumin [2]): 9 to 12 min | MIC (Staphylococcus aureus [3]): 91 µM (≈ 256 µg/mL) | MIC (Staphylococcus aureus [4]): 91 µM (≈ 256 µg/mL) | Activity (Albumin [5]): Active | MIC (Pseudomonas aeruginosa [6]; PAO1, 24 h): > 364 µM | MIC (Pseudomonas aeruginosa [7]): 23 µM (≈ 64.7 µg/mL)
